Experiments:
[1] = system: bovine serum albumin (BSA); test: Fluorescamine assay of free primary amino groups of BSA incubated with D-ribose; type: biochemical; details: free primary amino group on BSA after 5 days at 37° C.; agent at 16.8 times IC50; 64% without agent
Experimental: Fluorescamine assay (Yeboah F. et al., J. Agric. Food Chem. 48, 2766-2774 (2000)) was performed on incubated mixtures of BSA and D-ribose, with or without the identified anti-glycation agents. The mixtures contained BSA (0.075 mM protein concentration or 4.53 mM of Lys residue concentration) and D-ribose (50 mM). […] The fluorescamine assay determines the number of free lysine residues of BSA. In this experiment, the final volume of the incubation mixtures was 10 mL and the incubation time was 5 days at 37° C. Prior to the fluorescamine assay, the proteins were isolated by reverse phase HPLC. The protein content was determined using the Bio-Rad protein determination reagent (Bradford method). The fluorescamine assay was done in triplicate.

lysozyme = test: ESI-MS of lysozyme glycoforms after incubation with D-ribose; details: 37° C., 5 days; for Peak area as % of total area of all glycoforms, 14,569: lysozyme + 2D-ribose − 2H2O (14,569 Da); for Peak area as % of total area of all glycoforms, 14,551: lysozyme + 2D-ribose − 3H2O (14,551 Da); for Peak area as % of total area of all glycoforms, 14,533: lysozyme + 2D-ribose − 5H2O (14,533 Da); for Peak area as % of total area of all glycoforms, 14,515: lysozyme + 2D-ribose − 6H2O (14,515 Da); for Peak area as % of total area of all glycoforms, 14,419: lysozyme + D-ribose − 2H2O (14,419 Da); for Peak area as % of total area of all glycoforms, 14,401: lysozyme + D-ribose − 3H2O (14,401 Da); for Peak area as % of total area of all glycoforms, 14,437: lysozyme + D-ribose − H2O (14,437 Da); for Peak area as % of total area of all glycoforms, 14,496: lysozyme + D-ribose − H2O with one carboxymethylated Lys residue (14,496 Da); for Peak area as % of total area of all glycoforms, 14,364: lysozyme with one carboxymethylated Lys residue (14,364 Da); for Peak area as % of total area of all glycoforms, 14,305: unmodified lysozyme (14,305 Da);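 for all read-outs here: lysozyme incubated with D-ribose, with or without anti-glycation agents, then separated by reversed-phase HPLC and analysed by electrospray mass spectrometry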
[2] = system: bovine serum albumin (BSA); test: Maillard fluorescence-based assay of AGEs formation, IC50 determination (BSA + D-ribose); details: for IC50: inhibition of Maillard fluorescence development, 0.075 mM BSA, 50 mM D-ribose, 37° C., 5 days

| Molecule | Unreacted amino group [1] [%] | Peak area as % of total area of all glycoforms, 14,569 (lysozyme) [%] | Peak area as % of total area of all glycoforms, 14,551 (lysozyme) [%] | Peak area as % of total area of all glycoforms, 14,533 (lysozyme) [%] | Peak area as % of total area of all glycoforms, 14,515 (lysozyme) [%] | Peak area as % of total area of all glycoforms, 14,419 (lysozyme) [%] | Peak area as % of total area of all glycoforms, 14,401 (lysozyme) [%] | Peak area as % of total area of all glycoforms, 14,437 (lysozyme) [%] | Peak area as % of total area of all glycoforms, 14,496 (lysozyme) [%] | Peak area as % of total area of all glycoforms, 14,364 (lysozyme) [%] | Peak area as % of total area of all glycoforms, 14,305 (lysozyme) [%] | IC50 [2] [µM] | maximum percentage of the inhibition ([2]; Maillard fluorescence, listed if significantly lower than 100%) [%)] |
| --- | --- | --- | --- | --- | --- | --- | --- | --- | --- | --- | --- | --- | --- |
| O=[N+]([O-])c1ccc(O)c2ncccc12 [Nitroxoline] | 76 | 1.4 | 2.1 | 1.2 | 1.2 | 7.8 | 3.3 | 11.0 | 1.0 | 4.2 | 66.7 | 300 | – |
| O=c1cc(-c2cc(O)c(O)c(O)c2)oc2cc(O)cc(O)c12 [5,7,3′,4′,5′-Pentahydroxyflavone] | 54 | 4.3 | 4.3 | 1.7 | 0.7 | 8.6 | 0.2 | 20.6 | 0.0 | 2.2 | 55.0 | 210 | – |
| O=c1c(O)cccc2cc(O)c(O)c(O)c12 [Purpurogallin] | 31 | 3.6 | 1.2 | 0.9 | 0.0 | 4.1 | 0.0 | 22.2 | 0.0 | 0.0 | 67.9 | 76 | – |
| CNCC(=O)c1ccc(O)c(O)c1 [Adrenalone] | 45 | 3.3 | 1.3 | 1.3 | 1.5 | 2.5 | 1.7 | 17.2 | 2.2 | 4.8 | 59.3 | 57 | – |
| O=c1cc(-c2ccccc2O)oc2cc(O)cc(O)c12 [5,7,2′-Trihydroxyflavone] | 53 | 4.3 | 4.8 | 2.3 | 1.7 | 9.3 | 1.6 | 19.8 | 0.0 | 5.8 | 46.7 | 220 | – |
| O=C(O[C@@H]1Cc2c(O)cc(O)cc2O[C@@H]1c1cc(O)c(O)c(O)c1)c1cc(O)c(O)c(O)c1 [(−)-Epigallocatechin gallate] | 58 | 2.9 | 0.8 | 1.7 | 0.0 | 2.6 | 0.0 | 20.9 | 0.0 | 2.0 | 69.1 | 48 | 55 |
| Oc1cc(O)c2c(c1)O[C@H](c1ccc(O)c(O)c1)[C@@H](O)C2 [(+)-Catechin] | 66 | 2.8 | 1.4 | 1.2 | 0.0 | 4.0 | 0.0 | 19.7 | 0.0 | 2.0 | 68.9 | 19 | – |
| O=C1C[C@@H](c2ccc(O)c(O)c2)Oc2cc(O)cc(O)c21 [Eriodictyol] | 43 | 3.1 | 1.6 | 1.1 | 0.0 | 5.0 | 0.4 | 20.2 | 0.0 | 1.9 | 66.7 | 250 | – |
| Oc1cc(O)c2c(c1)O[C@H](c1ccc(O)c(O)c1)[C@H](O)C2 [(−)-Epicatechin] | 57 | 1.7 | 0.0 | 0.0 | 0.0 | 2.6 | 0.0 | 17.6 | 0.0 | 1.8 | 76.3 | 58 | – |
| Kaempferide | 49 | 3.9 | 4.4 | 4.0 | 1.6 | 8.9 | 5.4 | 18.5 | 0.0 | 2.5 | 46.7 | 280 | – |
| O=c1cc(-c2ccc(O)c(O)c2)oc2c(O)c(O)ccc12 [7,8,3′,4′-Tetrahydroxyflavone] | 56 | 1.6 | 0.6 | 0.0 | 0.0 | 3.0 | 0.0 | 15.9 | 0.8 | 2.0 | 76.2 | 150 | – |

Reference: patent US20080139664A1, “ANTI-GLYCATION AGENTS FOR PREVENTING AGE-, DIABETES-, AND SMOKING-RELATED COMPLICATIONS” (NATIONAL RESEARCH COUNCIL OF CANADA, priority 2001, published 2008)
